Patent US8629168B2, “Benzoxazoles and oxazolopyridines being useful as janus kinases inhibitors” (priority 2006, dated 2014)

Each compound was assayed against T1, GST-JAK2(808-1132) (Homo sapiens, UniProt O60674) (assay: EPK JAK/TYK-kinase family profiling assay (Caliper mobility shift), JAK2). Conditions: Caliper mobility shift assay of Example 187, 20 μM ATP, read-out: IC50 with Test in present Example.
T1 construct: GST-JAK2(808-1132) is purchased from Invitrogen; purchased Invitrogen (Carlsbad, USA) #4288
T1 sequence (O60674 808-1132): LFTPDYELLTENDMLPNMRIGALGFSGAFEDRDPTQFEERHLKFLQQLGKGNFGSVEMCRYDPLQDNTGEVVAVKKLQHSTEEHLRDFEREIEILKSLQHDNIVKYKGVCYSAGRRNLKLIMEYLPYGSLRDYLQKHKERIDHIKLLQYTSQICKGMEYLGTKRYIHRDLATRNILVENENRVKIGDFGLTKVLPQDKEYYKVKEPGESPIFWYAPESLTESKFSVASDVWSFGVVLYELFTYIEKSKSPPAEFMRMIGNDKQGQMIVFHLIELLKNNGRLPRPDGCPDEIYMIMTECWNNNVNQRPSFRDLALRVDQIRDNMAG
Assay type: biochemical
From the text: All four kinases of the JAK/TYK-kinase family are used as purified recombinant GST-fusion proteins, containing the active kinase domains. GST-JAK1(866-1154), GST-JAK3(811-1124), and GST-TYK2(888-1187) are expressed and purified by affinity chromatography. GST-JAK2(808-1132) is purchased from Invitrogen (Carlsbad, USA, #4288).
The kinase assays are based on the Caliper mobility shift assay using the LabChip 3000 systems. This technology is similar to capillary electrophoresis and uses charge driven separation of substrate and product in a microfluidic chip.
All kinase reactions are performed in 384 well microtiter plates in a total reaction volume of 18 μl. The assay plates are prepared with 0.1 μl per well of test compound in the appropriate test concentration, as described under the section “preparation of compound dilutions”. The reactions are started by combining 9 μl of substrate mix (consisting of peptide and ATP) with 9 μl of kinase dilution. The reactions are incubated for 60 minutes at 30° C. and stopped by adding 70 μl of stop buffer (100 mM Hepes, 5% DMSO, 0.1% Coating reagent, 10 mM EDTA, 0.015% Brij 35).
Fluorescently labeled synthetic peptides are used as substrates in all reactions. […] Specific assay conditions are described in Table 1:
The terminated reactions are transferred to a Caliper LabChip 3000 reader (Caliper Life Sciences, Mountain View, Calif., USA) and the turnover of each reaction is measured by determining the substrate/product ratio.
Test compounds are dissolved in DMSO (10 mM) and transferred into 1.4 mL flat bottom or V-shaped Matrix tubes carrying a unique 2D matrix chip by individual compound hubs. The numbers of these chips are distinctively linked to the individual compound identification numbers. The stock solutions are stored at −20° C. if not used immediately. For the test procedure the vials are defrosted and identified by a scanner whereby a working sheet is generated that guides the subsequent working steps.
Compound dilutions are made in 96 well plates. This format enabled the assay of maximally 40 individual test compounds at 8 concentrations (single points) including 4 reference compounds. The dilution protocol includes the production of pre-dilution plates, master plates and assay plates:
Pre-dilution plates: 96 polypropylene well plates are used as pre-dilution plates. A total of 4 pre-dilution plates are prepared including 10 test compounds each on the plate positions A1-A10, one standard compound at A11 and one DMSO control at A12. All dilution steps are done on a Hamilton STAR robot (Hamilton, Co., Reno, Nev., USA).
Master plates: 100 μL of individual compound dilutions including standard compound and controls of the 4 “pre-dilution plates” are transferred into a 384 “master plate” including the following concentrations 1,820, […], 182, 54.6, 18.2, 5.46, 1.82 and 0.546 μM, respectively in 90% of DMSO.
Assay plates: Identical assay plates are then prepared by pipetting 100 nL each of compound dilutions of the master plates into 384-well “assay plates”. In the following the compounds are mixed with 9 μL of assays components plus 9 μL enzyme corresponding to a 1:181 dilution steps enabling the final concentration of 10, 3.0, 1.0, 0.3, 0.1, 0.03, 0.01 and 0.003 μM, respectively. The preparation of the master plates are handled by the Matrix PlateMate Plus robot (Thermo Fisher Scientific, Handforth, Cheshire, United Kingdom) and replication of assay plates by the HummingBird robot (Genomic Solutions, Inc., Ann Arbor, Mich., USA).

| IC50 [nM] | SMILES |
| --- | --- |
| 79 | Cc1cc(Nc2nc3cccc(-c4ccc(CN5CCOCC5)c(C(F)(F)F)c4)c3o2)ccc1C(=O)N(C)C [Example 86, 2,N,N-Trimethyl-4-[7-(4-morpholin-4-ylmethyl-3-trifluoromethyl-phenyl)-benzooxazol-2-ylamino]-benzamide] |
| 6.45 | COCCN1CCN(c2ccc(Nc3nc4cccc(-c5ccc(C(=O)N6CCOCC6)c(C)c5)c4o3)cc2C)CC1 [Example 66, [4-(2-{4-[4-(2-Methoxy-ethyl)-piperazin-1-yl]-3-methyl-phenylamino}-benzooxazol-7-yl)-2-methyl-phenyl]-morpholin-4-yl-methanone] |
| 17.5 | CCN1CCN(c2ccc(Nc3nc4cccc(-c5ccc(S(N)(=O)=O)cc5)c4o3)cc2C)CC1 [Example 112, 4-{2-[4-(4-Ethyl-piperazin-1-yl)-3-methyl-phenylamino]-benzooxazol-7-yl}-benzenesulfonamide] |
| 15 | CCN1CCN(C(=O)c2ccc(Nc3nc4cccc(-c5cc(F)c(CN6CCOCC6)c(F)c5)c4o3)cc2C)CC1 [Example 104, {4-[7-(3,5-Difluoro-4-morpholin-4-ylmethyl-phenyl)-benzooxazol-2-ylamino]-2-methyl-phenyl}-(4-ethyl-piperazin-1-yl)-methanone] |
| 16.5 | CCN1CCN(c2ccc(Nc3nc4cccc(-c5ccc(C(C)(C)C(=O)N6CCOCC6)cc5)c4o3)cc2C)CC1 [Example 111, 2-(4-{2-[4-(4-Ethyl-piperazin-1-yl)-3-methyl-phenylamino]-benzooxazol-7-yl}-phenyl)-2-methyl-1-morpholin-4-yl-propan-1-one] |
| 60 | CN1CCN(c2ccc(Nc3nc4cccc(-c5ccc(CN6CCS(=O)(=O)CC6)cc5)c4o3)cc2)CC1 [Example 89, {7-[4-(1,1-Dioxo-1lambda*6*-thiomorpholin-4-ylmethyl)-phenyl]-benzooxazol-2-yl}-[4-(4-methyl-piperazin-1-yl)-phenyl]-amine] |
| 9.3 | Cc1cc(Nc2nc3cccc(-c4ccc(C(=O)N5CCOCC5)c(C)c4)c3o2)ccc1C(=O)N(C)C [Example 85, 2,N,N-Trimethyl-4-{7-[3-methyl-4-(morpholine-4-carbonyl)-phenyl]-benzooxazol-2-ylamino}-benzamide] |
| 15 | CN(C)C(=O)c1ccc(Nc2nc3cccc(-c4ccc(CS(C)(=O)=O)cc4)c3o2)cc1 [Example 71, 4-[7-(4-Methanesulfonylmethyl-phenyl)-benzooxazol-2-ylamino]-N,N-dimethyl-benzamide] |
| 21 | CC(=O)NC1Cc2ccc(Nc3nc4cccc(-c5ccc(CN6CCOCC6)c(F)c5)c4o3)cc2C1 (stereo not drawn) [Example 132, N-{5-[7-(3-Fluoro-4-morpholin-4-ylmethyl-phenyl)-benzooxazol-2-ylamino]-indan-2-yl}-acetamide] |
| 8.25 | Cc1cc(Nc2nc3cccc(-c4cc(F)c(CN5CCS(=O)(=O)CC5)c(F)c4)c3o2)ccc1C(=O)N(C)C [Example 65, 4-{7-[4-(1,1-Dioxo-thiomorpholin-4-ylmethyl)-3,5-difluoro-phenyl]-benzooxazol-2-ylamino}-2,N,N-trimethyl-benzamide] |
| 6.55 | COc1ccc(Nc2nc3cccc(-c4cc(F)c(CN5CCS(=O)(=O)CC5)c(F)c4)c3o2)cc1N1CCN(C)CC1 [Example 130, {7-[4-(1,1-Dioxo-1lambda*6*-thiomorpholin-4-ylmethyl)-3,5-difluoro-phenyl]-benzooxazol-2-yl}-[4-methoxy-3-(4-methyl-piperazin-1-yl)-phenyl]-amine] |
| < 3 | Cc1cc(Nc2nc3cccc(-c4ccc(CN5CCS(=O)(=O)CC5)c(F)c4)c3o2)ccc1C(=O)N(C)C [Example 84, 4-{7-[4-(1,1-Dioxo-1lambda*6*-thiomorpholin-4-ylmethyl)-3-fluoro-phenyl]-benzooxazol-2-ylamino}-2,N,N-trimethyl-benzamide] |
| 20.5 | Cc1cc(Nc2nc3cccc(-c4ccc(C(=O)N5CCOCC5)c(F)c4)c3o2)ccc1N1CCN(C2CC2)CC1 [Example 156, (4-{2-[4-(4-Cyclopropyl-piperazin-1-yl)-3-methyl-phenylamino]-benzooxazol-7-yl}-2-fluoro-phenyl)-morpholin-4-yl-methanone] |
| 5.2 | CCN1CCN(c2ccc(Nc3nc4cccc(-c5cc(F)c(CN6CCOCC6)c(F)c5)c4o3)cc2C)CC1 [Example 98, [7-(3,5-Difluoro-4-morpholin-4-ylmethyl-phenyl)-benzooxazol-2-yl]-[4-(4-ethyl-piperazin-1-yl)-3-methyl-phenyl]-amine] |
| 56.5 | CN1CCN(c2ccc(Nc3nc4cccc(-c5ccc(C(=O)N6CCOCC6)c(F)c5)c4o3)cc2C#N)CC1 [Example 90, 5-{7-[3-Fluoro-4-(morpholine-4-caronyl)-phenyl]-benzooxazol-2-ylamino}-2-(4-methyl-piperazin-1-yl)-benzonitrile] |
| 3.3 | Cc1cc(Nc2nc3cccc(-c4cc(F)c(CN5CCS(=O)(=O)CC5)c(F)c4)c3o2)ccc1N1CCN(C2CC2)CC1 [Example 154, [4-(4-Cyclopropyl-piperazin-1-yl)-3-methyl-phenyl]-{7-[4-(1,1-dioxo-1lambda*6*-thiomorpholin-4-ylmethyl)-3,5-difluoro-phenyl]-benzooxazol-2-yl}-amine] |
| 18 | C[S+]([O-])c1ccc(Nc2nc3cccc(-c4ccc(CC(=O)N5CCOCC5)cc4)c3o2)cc1 (stereo not drawn) [Example 135, 2-{4-[2-(4-Methanesulfinyl-phenylamino)-benzooxazol-7-yl]-phenyl}-1-morpholin-4-yl-ethanone] |
| 8.9 | Cc1cc(-c2cccc3nc(Nc4ccc(N5CCN(C6CC6)CC5)c(C)c4)oc23)ccc1C(=O)N1CCS(=O)(=O)CC1 [Example 162, (4-{2-[4-(4-Cyclopropyl-piperazin-1-yl)-3-methyl-phenylamino]-benzooxazol-7-yl}-2-methyl-phenyl)-(1,1-dioxo-1lambda*6*-thiomorpholin-4-yl)-methanone] |
| 50 | CS(=O)(=O)Nc1cccc(Nc2nc3cccc(-c4ccc(C(=O)N5CCOCC5)cc4)c3o2)c1 [Example 148, N-(3-{7-[4-(Morpholine-4-carbonyl)-phenyl]-benzooxazol-2-ylamino}-phenyl)-methanesulfonamide] |
| 14 | CC(=O)NC1Cc2ccc(Nc3nc4cccc(-c5ccc(CN6CCS(=O)(=O)CC6)cc5)c4o3)cc2C1 (stereo not drawn) [Example 133, N-(5-{7-[4-(1,1-Dioxo-1lambda*6*-thiomorpholin-4-ylmethyl)-phenyl]-benzooxazol-2-ylamino}-indan-2-yl)-acetamide] |
| < 3 | Cc1cc(Nc2nc3cccc(-c4ccc(CC(=O)N5CCS(=O)(=O)CC5)c(F)c4)c3o2)ccc1C(=O)N(C)C [Example 83, 4-(7-{4-[2-(1,1-Dioxo-1lambda*6*-thiomorpholin-4-yl)-2-oxo-ethyl]-3-fluoro-phenyl}-benzooxazol-2-ylamino)-2,N,N-trimethyl-benzamide] |
| 98 | O=C1Cc2cc(Nc3nc4cccc(-c5cc(F)c(CN6CCOCC6)c(F)c5)c4o3)ccc2N1 [Example 134, 5-[7-(3,5-Difluoro-4-morpholin-4-ylmethyl-phenyl)-benzooxazol-2-ylamino]-1,3-dihydro-indol-2-one] |
| 45 | Cc1cc(-c2cccc3nc(Nc4cccc(N5CCN(C)CC5)c4)oc23)ccc1C(=O)N1CCOCC1 [Example 129, (2-Methyl-4-{2-[3-(4-methyl-piperazin-1-yl)-phenylamino]-benzooxazol-7-yl}-phenyl)-morpholin-4-yl-methanone] |
| 88 | Cc1cc(-c2cccc3nc(Nc4ccc(C(=O)N5CCCC5)c(C)c4)oc23)ccc1CN1CCOCC1 [Example 110, {2-Methyl-4-[7-(3-methyl-4-morpholin-4-ylmethyl-phenyl)-benzooxazol-2-ylamino]-phenyl}-pyrrolidin-1-yl-methanone] |
